Experimental data: article PMC9977638 (Medicinal Chemistry Research, 2023)

Molecular target: T1, human recombinant COX-2 (Homo sapiens, UniProt P35354)
T1 sequence (P35354 18-604): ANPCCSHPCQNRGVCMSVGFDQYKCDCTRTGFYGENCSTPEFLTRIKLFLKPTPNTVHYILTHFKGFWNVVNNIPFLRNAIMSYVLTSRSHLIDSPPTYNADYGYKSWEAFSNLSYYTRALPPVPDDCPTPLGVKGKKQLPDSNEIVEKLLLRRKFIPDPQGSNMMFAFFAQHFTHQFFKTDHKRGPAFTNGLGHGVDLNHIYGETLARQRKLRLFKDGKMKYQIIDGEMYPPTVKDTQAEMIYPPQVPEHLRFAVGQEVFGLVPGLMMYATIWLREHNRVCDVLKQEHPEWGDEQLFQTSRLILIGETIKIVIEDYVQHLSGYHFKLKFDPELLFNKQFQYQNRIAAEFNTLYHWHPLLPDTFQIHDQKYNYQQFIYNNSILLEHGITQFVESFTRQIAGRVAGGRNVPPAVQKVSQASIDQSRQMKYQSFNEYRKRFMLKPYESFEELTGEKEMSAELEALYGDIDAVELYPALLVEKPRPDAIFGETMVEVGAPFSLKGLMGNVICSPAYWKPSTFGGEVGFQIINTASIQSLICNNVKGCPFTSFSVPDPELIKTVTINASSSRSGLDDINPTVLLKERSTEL
Format: biochemical
Settings: COX-1 IC50/COX-2 IC50

- Selectivity index (S.I.): 508
SMILES: Cc1ccc(Nc2c(-c3ccc(S(C)(=O)=O)cc3)nc3c(C)cccn23)cc1 [Compound 5n, 8-Methyl-2-(4-(methylsulfonyl)phenyl)-N-(p-tolyl)imidazo[1,2-a]pyridin-3-amine]
